Results published in paper PMC5347771 (Oncotarget, 2016).

What was measured:
[1] = target: T1, TYRO-3 (Homo sapiens, UniProt Q06418); assay: KINOMEscan competition binding (DiscoveRx); enzyme IC50 […] also measured (Reaction Biology)
T1 construct: gene TYRO3
T1 sequence (Q06418 41-890): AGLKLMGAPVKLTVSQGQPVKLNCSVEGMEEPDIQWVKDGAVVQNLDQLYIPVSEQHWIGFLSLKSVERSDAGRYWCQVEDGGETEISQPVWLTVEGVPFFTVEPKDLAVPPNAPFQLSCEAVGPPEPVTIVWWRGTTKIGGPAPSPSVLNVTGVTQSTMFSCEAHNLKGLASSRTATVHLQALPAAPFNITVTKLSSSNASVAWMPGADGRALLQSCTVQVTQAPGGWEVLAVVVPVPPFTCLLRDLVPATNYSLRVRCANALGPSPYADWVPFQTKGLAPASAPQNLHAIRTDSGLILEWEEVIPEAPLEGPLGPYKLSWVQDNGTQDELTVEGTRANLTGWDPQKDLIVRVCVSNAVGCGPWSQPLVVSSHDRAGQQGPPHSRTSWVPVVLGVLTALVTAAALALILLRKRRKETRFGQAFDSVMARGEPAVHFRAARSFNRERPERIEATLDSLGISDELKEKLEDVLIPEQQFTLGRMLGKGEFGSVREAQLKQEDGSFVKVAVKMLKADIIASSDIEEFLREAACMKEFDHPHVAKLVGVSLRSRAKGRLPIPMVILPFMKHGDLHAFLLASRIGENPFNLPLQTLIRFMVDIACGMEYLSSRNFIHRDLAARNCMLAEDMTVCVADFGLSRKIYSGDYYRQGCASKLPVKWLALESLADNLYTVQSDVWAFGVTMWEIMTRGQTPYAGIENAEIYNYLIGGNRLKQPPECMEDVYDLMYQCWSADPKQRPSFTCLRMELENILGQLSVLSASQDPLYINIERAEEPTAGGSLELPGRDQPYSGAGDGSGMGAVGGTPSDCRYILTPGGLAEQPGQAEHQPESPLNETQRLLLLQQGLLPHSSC

[2] = target: T2, AXL (Homo sapiens, UniProt P30530); assay: as above
T2 sequence (P30530 26-894): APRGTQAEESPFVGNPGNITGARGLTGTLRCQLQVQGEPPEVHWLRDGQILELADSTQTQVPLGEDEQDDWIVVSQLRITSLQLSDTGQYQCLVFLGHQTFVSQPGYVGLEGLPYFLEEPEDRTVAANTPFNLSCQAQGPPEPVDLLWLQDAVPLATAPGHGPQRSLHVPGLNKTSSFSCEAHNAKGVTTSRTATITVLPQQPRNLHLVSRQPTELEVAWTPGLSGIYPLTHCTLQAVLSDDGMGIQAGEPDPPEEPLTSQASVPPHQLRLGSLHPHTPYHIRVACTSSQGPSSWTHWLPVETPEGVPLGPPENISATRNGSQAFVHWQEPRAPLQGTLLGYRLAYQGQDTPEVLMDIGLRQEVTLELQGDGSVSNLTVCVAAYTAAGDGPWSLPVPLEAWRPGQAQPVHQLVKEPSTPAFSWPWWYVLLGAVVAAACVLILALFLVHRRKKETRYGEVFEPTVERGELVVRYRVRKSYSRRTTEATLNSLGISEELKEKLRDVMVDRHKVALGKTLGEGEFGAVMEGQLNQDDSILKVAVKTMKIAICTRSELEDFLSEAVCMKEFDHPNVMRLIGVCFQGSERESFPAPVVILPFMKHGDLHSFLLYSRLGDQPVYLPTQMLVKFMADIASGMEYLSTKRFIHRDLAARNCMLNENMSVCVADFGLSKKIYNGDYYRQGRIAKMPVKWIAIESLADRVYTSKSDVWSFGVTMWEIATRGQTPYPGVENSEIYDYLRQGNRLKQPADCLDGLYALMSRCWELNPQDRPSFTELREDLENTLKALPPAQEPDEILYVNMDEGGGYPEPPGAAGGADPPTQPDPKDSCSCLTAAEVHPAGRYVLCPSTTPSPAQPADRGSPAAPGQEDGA

NC(=O)Nc1cc(-c2cccc(F)c2)sc1C(=O)N[C@H]1CCCNC1 [DN10764, (S)-5-(3-fluorophenyl)-N-(piperidin-3-yl)-3-ureidothiophene-2-carboxamide]
Kd [1]: 1050 nM | Kd [2]: 26 nM
